Counter-ions that a name gives are not always drawn.
What follows are compounds tested against T1, human ProRS (prolyl tRNA synthetase moiety of glutamyl prolyl tRNA synthetase) (Homo sapiens, UniProt P07814) (assay: Assay for inhibitors of prolyl tRNA synthetase activity (ProRS assay, labeled proline incorporation)). Conditions: ProRS 20 nM, compounds 10 μM to 0.5 nM, 10 min at 37° C.; read-out: EPR IC50.
T1 construct: The prolyl tRNA synthetase moiety (ProRS) in the cDNA of glutamyl prolyl tRNA synthetase was subcloned; 6xHis (N, cleaved yes); made in house; host or cells: E. coli BL21 (DE3)
T1 sequence (P07814 1007-1512 limits assumed): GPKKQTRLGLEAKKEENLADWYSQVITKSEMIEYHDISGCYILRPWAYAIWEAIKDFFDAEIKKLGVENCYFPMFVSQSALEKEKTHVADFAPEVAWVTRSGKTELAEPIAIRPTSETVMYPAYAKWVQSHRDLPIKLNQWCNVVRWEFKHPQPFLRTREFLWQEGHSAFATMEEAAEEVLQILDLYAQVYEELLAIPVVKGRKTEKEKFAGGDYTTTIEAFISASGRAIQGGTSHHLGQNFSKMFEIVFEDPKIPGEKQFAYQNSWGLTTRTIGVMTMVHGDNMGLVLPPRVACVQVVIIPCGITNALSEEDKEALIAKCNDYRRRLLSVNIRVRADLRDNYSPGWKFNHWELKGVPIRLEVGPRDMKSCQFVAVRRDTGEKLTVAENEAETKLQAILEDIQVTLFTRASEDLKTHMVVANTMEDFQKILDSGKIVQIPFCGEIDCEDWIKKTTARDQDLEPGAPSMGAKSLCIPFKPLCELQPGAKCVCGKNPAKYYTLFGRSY
Type: biochemical
Description: In order to establish the activities of the compounds highlighted above, we determined extent of inhibition of prolyl tRNA synthetase activity in dose response curves to obtain IC50 values.
The prolyl tRNA synthetase moiety (ProRS) in the cDNA of glutamyl prolyl tRNA synthetase was subcloned, tagged with a single biotin, purified and used in the assay. Briefly, human ProRS with a 6× N-terminal His tag in pET28N with TVMV BioP was transformed in E. coli BL21 (DE3) cells, selected, overexpressed and purified using a Ni Seph 6 FF XK 16/20 column in the first stage. Ni-NTA eluates were pooled and treated with TVMV protease, and biotinylated using d-Biotin, MgCl2, ATP and the BirA enzyme. This was rerun through a Ni column as before. The eluates were further enriched and purified using membrane ultrafiltration and a SuperDex 200 XK 16/60 column, and peak fractions were confirmed by SDS-PAGE prior to protein amount determination, aliquoting and storage at −80° C.
ProRS assay was performed in 96 well plates in a final reaction volume of 20 μl, using staggered additions of Tris-Cl (pH 7.5, 60 mM), dithiothreitol (2 mM), ATP (5 mM, pH 7.0), MgCl2 6 mM), ProRS (20 nM, with pre-determined active fraction range) and bovine tRNA (20 μg). Controls and compounds, at various concentrations (10 μM to 0.5 nM), were incubated on ice with enzyme mix for 15 min followed by addition of proline (non-labeled and labeled, 3.96 and 1.04 μM (1 μCi) respectively) to initiate the reaction. Reaction was carried out for 10 min at 37° C. and terminated by addition of TCA (10%, 100 μl). Reaction mix was collected on a Whatman GF/B filter using a vacuum filtration manifold. This filter was washed 3 times with 5% TCA followed by 2 washes with ethanol, air dried, and read using a liquid scintillation counter (TopCount NXT) using MicroScint O. IC50 values were calculated and analyzed using ToolSet (4-parameter plot) and depicted herein.

Point of comparison: `Cc1cc(-c2ccc(F)c(F)c2)nc2c(=O)n(C[C@@H](O)C[C@H]3NCCC[C@@H]3O)cnc12` [Example 27, 6-(3,4-difluorophenyl)-3-((S)-2-hydroxy-3-((2R,3S)-3-hydroxypiperidin-2-yl)propyl)-8-methylpyrido[3,2-d]pyrimidin-4(3H)-one dihydrochloride], IC50 172 nM. Against it:
- O=C(C[C@H]1NCCC[C@@H]1O)Cn1cnc2ccc(-c3cccnc3)nc2c1=O [Example 11, 3-{3-[(2R,3S)-3-hydroxypiperidin-2-yl]-2-oxopropyl}-6-(pyridin-3-yl)pyrido[3,2-d]pyrimidin-4(3H)-one trihydrochloride] — 19-fold lower, 9 nM
- Cc1cc(C2CC2)nc2c(=O)n(CC(=O)C[C@H]3NCCC[C@@H]3O)cnc12 [Example 12, 6-cyclopropyl-3-(3-((2R,3S)-3-hydroxypiperidin-2-yl)-2-oxopropyl)-8-methylpyrido[3,2-d]pyrimidin-4(3H)-one dihydrochloride] — 13-fold lower, 13 nM
- Cc1cc(C(F)(F)F)cn2c(=O)c(NC(=O)C[C@H]3NCCC[C@@H]3O)cnc12 [Example 41, 2-((2R,3S)-3-hydroxypiperidin-2-yl)-N-(9-methyl-4-oxo-7-(trifluoromethyl)-4H-pyrido[1,2-a]pyrimidin-3-yl)acetamide 2,2,2-trifluoroacetic acid] — higher, > 8000 nM
- O=C(C[C@H]1NCCC[C@@H]1O)Cn1cnc2ccc(-c3ccc(F)c(F)c3)nc2c1=O [Example 9, 6-(3,4-difluorophenyl)-3-{3-[(2R,3S)-3-hydroxypiperidin-2-yl]-2-oxopropyl}pyrido[3,2-d]pyrimidin-4(3H)-one dihydrochloride] — 22-fold lower, 8 nM
- O=c1c2cnccc2ncn1C[C@@H](O)C[C@H]1NCCC[C@@H]1O [Example 26, 3-{(S)-2-Hydroxy-3-[(2R,3S)-3-hydroxypiperidin-2-yl]propyl}pyrido[4,3-d]pyrimidin-4(3H)-one dihydrochloride] — 2.1-fold lower, 80 nM
- Cc1cc(-c2cccc(C(F)(F)F)c2)nc2c(=O)n(CC(=O)C[C@H]3NCCC[C@@H]3O)cnc12 [Example 15, 3-{3-[(2R,3S)-3-hydroxypiperidin-2-yl]-2-oxopropyl}-8-methyl-6-(3-(trifluoromethyl)phenyl)pyrido[3,2-d]pyrimidin-4(3H)-one bis(2,2,2-trifluoroacetic acid)] — 22-fold lower, 8 nM
- Cc1cc(C(C)C)cc2c(=O)n(CC(=O)C[C@@H]3CCCCN3)cnc12 [Example 18, (S)-6-isopropyl-8-methyl-3-{2-oxo-3-[piperidin-2-yl]propyl}quinazolin-4(3H)-one hydrochloride] — within 1.5-fold, 140 nM
- Cc1cc(C)c2ncn(C[C@@H](O)C[C@@H]3CCCCN3)c(=O)c2n1 [Example 36, 3-{(S)-2-hydroxy-3-[(S)-piperidin-2-yl]propyl}-6,8-dimethylpyrido[3,2-d]pyrimidin-4(3H)-one dihydrochloride] — 13-fold higher, 2180 nM
- Cc1cc(C)c2ncn(C[C@@H](O)C[C@H]3NCC[C@@H]3O)c(=O)c2n1 [Example 37, 3-{(S)-2-hydroxy-3-[(2R,3S)-3-hydroxypyrrolidin-2-yl]propyl}-6,8-dimethylpyrido(3,2-d)pyrimidin-4(3H)-one bis (2,2,2-trifluoroacetic acid)] — higher, > 10000 nM
- Cc1cc(C(C)C)cc2c(=O)n(C[C@@H](O)C[C@@H]3CCCCN3)cnc12 [Example 35, 3-{(S)-2-hydroxy-3-[(S)-piperidin-2-yl]-propyl}-6-isopropyl-8-methylquinazolin-4(3H)-one hydrochloride] — 8.1-fold higher, 1390 nM
- O=C(C[C@H]1NCCC[C@@H]1O)Cn1cnc2ccc(-c3cccc(C(F)(F)F)c3)nc2c1=O [Example 6, 3-{3-[(2R,3S)-3-Hydroxypiperidin-2-yl]-2-oxopropyl}-6-[3-(trifluoromethyl)phenyl]pyrido[3,2-d]pyrimidin-4(3H)-one dihydrochloride] — 7.5-fold lower, 23 nM
- Cc1cc(-c2cccc(Cl)c2)nc2c(=O)n(CC(=O)C[C@H]3NCCC[C@@H]3O)cnc12 [Example 16, 6-(3-chlorophenyl)-3-{3-[(2R,3S)-3-hydroxypiperidin-2-yl]-2-oxopropyl}-8-methylpyrido[3,2-d]pyrimidin-4(3H)-one bis(2,2,2-trifluoroacetate)] — 57-fold lower, 3 nM
- O=c1c2nc(-c3cccc(Cl)c3)ccc2ncn1C[C@@H](O)C[C@H]1NCCC[C@@H]1O [Example 22, 6-(3-Chlorophenyl)-3-{(S)-2-hydroxy-3-[(2R,3S)-3-hydroxypiperidin-2-yl]propyl}pyrido[3,2-d]pyrimidin-4(3H)-one dihydrochloride] — 8.6-fold lower, 20 nM
- O=c1c2nc(-c3cccc(F)c3)ccc2ncn1C[C@@H](O)CC1NCCC[C@@H]1O (stereo partly drawn) [Example 24, 6-(3-Fluorophenyl)-3-{(2S)-2-hydroxy-3-[(3S)-3-hydroxypiperidin-2-yl]propyl}pyrido[3,2-d]pyrimidin-4(3H)-one dihydrochloride] — 22-fold lower, 8 nM
- Cc1cc(-c2cccnc2)nc2c(=O)n(C[C@@H](O)C[C@H]3NCCC[C@@H]3O)cnc12 [Example 34, 3-{(S)-2-hydroxy-3-[(2R,3S)-3-hydroxypiperidin-2-yl]propyl}-8-methyl-6-(pyridin-3-yl)pyrido[3,2-d]pyrimidin-4(3H)-one trihydrochloride] — 1.7-fold higher, 290 nM
- Cc1cc(-c2cccc(F)c2)nc2c(=O)n(C[C@@H](O)C[C@H]3NCCC[C@@H]3O)cnc12 [Example 32, 6-{(3-fluorophenyl)-3-[(S)-2-hydroxy-3-(2R,3S)-3-hydroxypiperidin-2-yl-propyl)-8-methylpyrido[3,2-d]}pyrimidin-4(3H)-one dihydrochloride] — 2.2-fold lower, 79 nM
- Cc1cc(Cl)cc2c(=O)n(CC(=O)CC3CCCCN3)cnc12 (stereo not shown) [Example 3, 6-Chloro-8-methyl-3-[2-oxo-3-(piperidin-2-yl)propyl]quinazolin-4(3H)-one hydrochloride] — 2.4-fold lower, 71 nM
- Cc1cc(-c2cccnc2)nc2c(=O)n(CC(=O)C[C@H]3NCCC[C@@H]3O)cnc12 [Example 17, 3-{3-[(2R,3S)-3-hydroxypiperidin-2-yl]-2-oxopropyl}-8-methyl-6-(pyridin-3-yl)pyrido[3,2-d]pyrimidin-4(3H)-one trihydrochloride] — 14-fold lower, 12 nM
- O=C(C[C@H]1NCCC[C@@H]1O)Cn1cnc2ccc(-c3cccc(F)c3)nc2c1=O [Example 7, 6-(3-Fluorophenyl)-3-{3-[(2R,3S)-3-hydroxypiperidin-2-yl]-2-oxopropyl}pyrido[3,2-d]pyrimidin-4(3H)-one dihydrochloride] — 34-fold lower, 5 nM
- Cc1cc(C(F)(F)F)cc2c(=O)n(CC(=O)C[C@@H]3CCCCN3)cnc12 [Example 19, (S)-8-methyl-3-{2-oxo-3-[piperidin-2-yl]propyl}-6-(trifluoromethyl)quinazolin-4(3H)-one 2,2,2-trifluoroacetate] — within 1.5-fold, 159 nM
- O=C(C[C@H]1NCCC[C@@H]1O)Cn1cnc2ccncc2c1=O [Example 8, 3-{3-[(2R,3S)-3-hydroxypiperidin-2-yl]-2-oxopropyl}pyrido[4,3-d]pyrimidin-4(3H)-one dihydrochloride] — 12-fold lower, 14 nM
- O=C(C[C@H]1NCCC[C@@H]1O)Cn1cnc2ccc(-c3cccc(Cl)c3)nc2c1=O [Example 5, 6-(3-chlorophenyl)-3-{3-[(2R,3S)-3-hydroxypiperidin-2-yl]-2-oxopropyl}pyrido[3,2-d]pyrimidin-4(3H)-one dihydrochloride] — 17-fold lower, 10 nM
- O=c1c2nc(-c3cccnc3)ccc2ncn1C[C@@H](O)C[C@H]1NCCC[C@@H]1O [Example 29, 3-{(S)-2-hydroxy-3-[(2R,3S)-3-hydroxypiperidin-2-yl]propyl}-6-(pyridin-3-yl)pyrido[3,2-d]pyrimidin-4(3H)-one 2,2,2-trifluoroacetate] — 1.7-fold lower, 103 nM
- O=c1c2nc(-c3ccc(F)c(F)c3)ccc2ncn1C[C@@H](O)C[C@H]1NCCC[C@@H]1O [Example 25, 6-(3,4-Difluorophenyl)-3-{(S)-2-hydroxy-3-[(2R,3S)-3-hydroxypiperidin-2-yl]propyl}pyrido[3,2-d]pyrimidin-4(3H)-one dihydrochloride] — 6.9-fold lower, 25 nM

Source: patent publication US20210122746A1, “FEBRIFUGINE DERIVATIVES” (BRISTOL-MYERS SQUIBB COMPANY, priority 2017, published 2021)
